# Experimental data: patent US20150299648A1, “IMPROVED CULTIVATION MEDIA AND PROCESS FOR IMPROVED PROTEIN PRODUCTION BY PICHIA STRAINS” (priority 2012, published 2015)
# Key:
# [1] = Osmolality of sugar and sugar alcohol solutions (osmometer); format: physicochemical; settings: 500 mM in water
# Protocol: The sugar and sugar alcohol solutions used as osmoprotectant supplements were prepared at 500 mM in water and their osmolalities were measured using Osmometer (Multi-somotte, Model 2430, Precision Systems Inc, MA, USA). The osmolality of solution was directly proportional to the concentration of component in solution. For instance there was a linear relationship between sorbitol concentration (mM) and osmolality of the solution (mOsm/kg) as shown in FIG. 1A. The osmolalities of maltitol, sorbitol, glycerol, and glucose at 500 mM in water were 590±4, 544±3, 541±3, and 568±0 mOsm/kg respectively (FIG. 1B). The osmolaties of sorbose, mellibiose, ribose, quinic acid and myo-inositol at 500 Mm in water were (480±5), (500±5), (470±5), (480±5) AND (510±10), respectively.
# [2] = tested on: P. pastrois strain yGLY21058; assay: Fermentability of sugars or sugar alcohols on M agar plate; format: cell-based, Pichia pastoris; settings: 6 days at 30° C.
# Protocol: The 1 mL of RCB (Research Cell Bank in 20% of glycerol) for P. pastrois strain yGLY21058 producing glycosylated insulin precursor (GIP) was inoculated in 200 mL of Seed medium (4% glycerol, 1% yeast extract, 2% soytone, 1.34% YNB without amino acids, 0.23% K2HPO4, 1.19% KH2PO4, 8 μg/L biotin) and cultivated for 48 h at 24° C. The cell pellet was harvested by centrifugation at 4,000 rpm for 10 min and re-suspended with PBS buffer (pH 7.4) to wash the cell twice. The 0.1 mL of cell suspension with wash buffer was transferred and spread onto the minimal agar plate containing each sugar or sugar alcohol (1% w/v), which is listed in Table 1.
# YPD (1% yeast extract, 2% yeast peptone, and 1% glucose) agar plate was used for the positive control and a minimal agar plate without carbon sources (M) was used for negative control. Growth of Pichia pastoris on M agar plate containing single carbon source was categorized as no (−), slow (+), moderate (++), and fast (+++) colony formation for 6 days in Table 1.
# [3] = tested on: glycoengineered P. pastoris (YGLY13979) strain producing a monoclonal antibody; assay: Effect of maltitol and Mix2 supplements on fed-batch fermentation profile; format: cell-based, Pichia pastoris; settings: for Cell lysis: methanol induction phase
# Protocol: The osmoprotective effect of maltitol (50 g/L) in combination with a supplement comprising a mixture of nutrients (Mix2) consisting of amino acid (AA1), vitamins (Vit4), trace metal ions (TM4), and basal salts (BSM2) as described in Table 2 was also evaluated using a glycoengineered P. pastoris (YGLY13979) strain producing a monoclonal antibody was cultivated in 1 L bioreactors (Biostat Q-plus, Satorius, Germany).
# A P. pastoris YGLY13979 producing a monoclonal antibody was cultivated in 1 L bioreactors (Biostat Q-plus, Satorius, Germany). For fermentation in 1 L bioreactor, a vial (1 mL) of RCB (Research Cell Bank) was inoculated into 200 mL of BSGY medium in 1 L-baffled flask. The culture incubated at 24° C., while shaking on an orbital shaker at 180 rpm for 48±4 h. The bioreactor was inoculated with a 10% volumetric ratio of seed to initial BSGY medium. Cultivation conditions were following: temperature set at 24±0.5° C., pH controlled at 6.5±0.1 with 30% ammonium hydroxide, dissolved oxygen was maintained at 20% of saturation by cascading agitation rate on the addition of pure oxygen to the fixed airflow rate of 0.7 vvm. The fermentation profile of the production strain was examined using four different cultivation conditions after batch phase.
# For the control, a 50% glycerol solution containing 12.5 mL/L of PTM1 salts (6.5 g FeSO4.7H2O, 2.0 g ZnCl2, 0.6 g CuSO4.5H2O, 3.0 g MnSO4.7H2O, 0.5 g CoCl2.6H2O, 0.2 g NaMoO4.2H2O, 0.2 g biotin, 80 mg NaI, 20 mg H3BO4 per L) was fed constantly at an initial rate of 0.08 h^−1 for 8 h After depletion of the initial glycerol (4%).
# For Mix2, 10 mL AA1, 4 mL Vit4, 4 mL TM4, and 4 mL BSM2 were mixed with 62.5 mL of 80% glycerol and 15.5 mL of water. The Mix2 solution was fed during the glycerol fed-batch period instead of regular glycerol solution, which was used for the control.
# For Maltitol, 43.5 mL of 80% matitol solution was added into bioreactor to achieve 50 g/L concentration at the end of glycerol fed-batch phase.
# For Maltitol+Mix2, two conditions of Maltitol and Mix2 were combined.
# Induction was initiated after a 30 min starvation phase when methanol was fed. Methanol containing 12.5 mL/L of PTM1 salts (6.5 g FeSO4.7H2O, 2.0 g ZnCl2, 0.6 g CuSO4.5H2O, 3.0 g MnSO4.7H2O, 0.5 g CoCl2.6H2O, 0.2 g NaMoO4.2H2O, 0.2 g biotin, 80 mg NaI, 20 mg H3BO4 per L) was fed constantly starting at 1.33 g/L/h under methanol limited condition. Agitation speed was changed from cascade mode with agitation speed and pure oxygen.
smiles,measurement,setting,value
"OC[C@@H](O)[C@@H](O[C@H]1O[C@H](CO)[C@@H](O)[C@H](O)[C@H]1O)[C@H](O)[C@@H](O)CO [Maltitol, 4-O-α-glucopyranosyl-D-sorbitol]",Osmolality of solution,[1],590±4 mOsm/kg
same,Fermentability category from colony formation on the plate,[2]; minimal agar plate,strict non-fermentable substrates
same,Growth on M agar,[2]; single carbon source 1% w/v,−
same,Increase of maximum titer of anti-Her2 monoclonal antibody over control culture,"[3]; 5% maltitol, 600 mOsm/kg in induction phase",120%
same,Cell lysis,[3]; vs BSGY control,reduced the cell lysis significantly
same,Cell lysis,"[3]; vs BSGY control, listed as maltitol",significantly reduced
same,Effective range of concentration in BSGY medium,[3]; to increase and maintain osmolality during induction phase,higher than 25 g/L
same,Cell yield,[3]; vs BSGY control,slight reduction of cell yield
